{"source": "patent US6514981B1", "about": "“Methods of modulating tyrosine protein kinase function with indolinone compounds” (Sugen, Inc., priority 1998, dated 2003)", "key": {"3T3EGFR": {"test_system": "3T3EGFR", "experiment": "BrdU incorporation assay, 3T3EGFR, EGF", "assay_type": "cell-based"}, "human FLK-1": {"target": "human FLK-1 (Homo sapiens, UniProt P35968)", "sequence (P35968 20-1356)": "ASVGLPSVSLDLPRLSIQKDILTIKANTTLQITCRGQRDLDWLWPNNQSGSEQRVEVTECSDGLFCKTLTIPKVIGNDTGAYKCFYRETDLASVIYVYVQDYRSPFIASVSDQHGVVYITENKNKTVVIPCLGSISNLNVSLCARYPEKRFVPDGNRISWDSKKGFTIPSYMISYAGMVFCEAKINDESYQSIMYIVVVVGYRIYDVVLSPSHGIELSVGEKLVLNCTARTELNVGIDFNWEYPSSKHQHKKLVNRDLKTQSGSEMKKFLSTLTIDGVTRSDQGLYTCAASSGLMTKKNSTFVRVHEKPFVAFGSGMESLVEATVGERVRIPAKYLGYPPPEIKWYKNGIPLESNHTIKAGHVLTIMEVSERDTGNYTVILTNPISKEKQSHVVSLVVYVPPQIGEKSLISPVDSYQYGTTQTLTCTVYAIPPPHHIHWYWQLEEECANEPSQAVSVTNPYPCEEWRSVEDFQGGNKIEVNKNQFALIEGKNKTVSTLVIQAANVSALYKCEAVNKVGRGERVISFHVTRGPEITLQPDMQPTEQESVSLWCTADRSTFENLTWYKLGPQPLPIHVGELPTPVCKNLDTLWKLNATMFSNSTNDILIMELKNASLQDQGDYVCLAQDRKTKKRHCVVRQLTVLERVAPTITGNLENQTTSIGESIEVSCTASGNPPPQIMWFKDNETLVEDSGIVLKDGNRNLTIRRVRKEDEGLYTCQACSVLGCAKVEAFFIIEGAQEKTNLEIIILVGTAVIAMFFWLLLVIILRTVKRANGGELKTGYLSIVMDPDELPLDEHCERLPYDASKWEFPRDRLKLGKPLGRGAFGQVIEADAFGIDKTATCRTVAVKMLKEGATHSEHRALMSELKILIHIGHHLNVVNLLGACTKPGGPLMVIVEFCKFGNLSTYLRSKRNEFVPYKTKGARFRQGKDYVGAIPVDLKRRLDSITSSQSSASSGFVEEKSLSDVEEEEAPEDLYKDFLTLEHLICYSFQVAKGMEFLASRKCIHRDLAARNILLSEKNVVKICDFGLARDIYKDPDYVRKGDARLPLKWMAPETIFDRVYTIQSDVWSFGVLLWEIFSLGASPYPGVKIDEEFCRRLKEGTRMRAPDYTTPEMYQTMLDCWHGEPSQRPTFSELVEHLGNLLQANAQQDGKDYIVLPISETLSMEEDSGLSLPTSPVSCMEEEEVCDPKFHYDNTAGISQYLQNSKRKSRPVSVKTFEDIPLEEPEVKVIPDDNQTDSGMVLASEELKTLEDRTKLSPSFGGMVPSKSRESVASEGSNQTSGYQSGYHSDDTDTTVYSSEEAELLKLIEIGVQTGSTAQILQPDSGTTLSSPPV", "experiment": "FLK-1 autophosphorylation assay in vitro (ELISA)", "assay_type": "biochemical", "design": "host or cells: FLK-1/NIH cells (NIH fibroblast line); lysate captured on L4 or E38 anti-FLK-1 antibody", "details": "FLK-1 autophosphorylation in vitro, immobilized FLK-1 from FLK-1/NIH cell lysate", "excerpt": "The following protocol describes the ELISA procedures used to determine the FLK-1 autophosphorylation activity in vitro. The procedure also describes the protocol for the initial screening of indolinone compounds. 2. FLK-1/NIH cells: NIH fibroblast line overexpressing human FLK-1 clone 3 (MPI, Martinsried, Germany). 6. L4 or […]: monoclonal antibody specific for FLK-1; purified by protein-A agarose affinity chromatography (SUGEN, Inc., Redwood City, Calif.). 2. Remove the medium and wash the cells twice with PBS. Lyse with HNTG lysis buffer. Collect all lysates and mix them on a vortex for 20-30 seconds. 1. Coat Corning 96-well ELISA plates with 2 ug/well of purified L4 (or […]) in 100 μL of PBS overnight at 4° C. 5. Dilute lysate in PBS to give final concentration of 50 ug/100 μL. Add 100 μL of diluted lysate per well. Incubate with shaking at 4° C. overnight. 7. Add 80 μL of kinase buffer to the wells (negative control wells get 90 μL). 8. Dilue compounds (normally 10 fold) into wells of a polypropylene plate containing 20% DMSO in TBS. 9. Add 10 μL of the prediluted compounds to the ELISA wells containing immobilized FLK-1 and shake. Control wells receive no compound. […] When the color in the positive control wells reaches an absorbance of about 0.35-0.4, read plates on Dynatech MR7000 ELISA reader. The IC50 values measured in the above assay for the compound of formula VI are depicted in Table 1: […]"}}, "data": [{"smiles": "Cc1cc(/C=C2/C(=O)Nc3ccccc32)c(C)c2c1[nH]c1ccccc12", "note": "[VI]", "values": [{"measurement": "IC50", "setting": "3T3EGFR", "result": 7.03, "unit": "µM"}, {"measurement": "IC50", "setting": "human FLK-1", "result": "> 50", "unit": "µM"}]}]}
